Assay [1] addresses T1, human DGKζ (Homo sapiens (Human), UniProt Q13574). In words: DGKζ LIPGLO assay (extruded liposome substrate). It counts as biochemical. A digest of the protocol: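 Recombinant DGKζ (Sf9-expressed, Ni/SEC/SP-purified) preincubated 10 min with extruded 100 nm PC/DAG/PS liposomes in 50 mM MOPS pH 7.5, 100 mM NaCl, 10 mM MgCl2, 1 μM CaCl2, 1 mM DTT. Started with 300 uM ATP solution (stock, pre-addition); 1 hr reaction. ADP-Glo luminescence; IC50 from 11 concentrations.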

Assay [2] deals with pre-activated CD4 T cells and Raji cells. In words: Raji CD4 T Cell IL2 Assay. The class given is cell-based.
The target of assay [3] is T1, human DGKζ. In words: DGKζ assay (detergent/lipid micelle substrate). It counts as biochemical. A digest of the protocol: (§1)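 Full-length human DGKζ (and DGKα), C-terminal His-tagged, Sf9-expressed, with phosphatidylserine/DAG micelles in 50 mM octyl glucoside; buffer 50 mM MOPS pH 7.5, 100 mM NaCl, 10 mM MgCl2, 1 μM CaCl2, 1 mM DTT.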
For assay [4], the target named is T2, human DGKα (Homo sapiens (Human), UniProt P23743). Nature of the assay: DGKα LIPGLO assay (extruded liposome substrate). It counts as biochemical. A digest of the protocol: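 Human full-length DGKα, His-tagged and produced in Sf9 cells, assayed at 20 nM (4× stock) on extruded liposomes of PS, 0.25 mM DAG and 2.75 mM PC, preincubated 10 min. Reaction started with 300 μM ATP (stock) and ran 1 h in MOPS pH 7.5/MgCl2/CaCl2/DTT buffer.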
T2 sequence (P23743 other isoform, or with tags, fused parts or gaps): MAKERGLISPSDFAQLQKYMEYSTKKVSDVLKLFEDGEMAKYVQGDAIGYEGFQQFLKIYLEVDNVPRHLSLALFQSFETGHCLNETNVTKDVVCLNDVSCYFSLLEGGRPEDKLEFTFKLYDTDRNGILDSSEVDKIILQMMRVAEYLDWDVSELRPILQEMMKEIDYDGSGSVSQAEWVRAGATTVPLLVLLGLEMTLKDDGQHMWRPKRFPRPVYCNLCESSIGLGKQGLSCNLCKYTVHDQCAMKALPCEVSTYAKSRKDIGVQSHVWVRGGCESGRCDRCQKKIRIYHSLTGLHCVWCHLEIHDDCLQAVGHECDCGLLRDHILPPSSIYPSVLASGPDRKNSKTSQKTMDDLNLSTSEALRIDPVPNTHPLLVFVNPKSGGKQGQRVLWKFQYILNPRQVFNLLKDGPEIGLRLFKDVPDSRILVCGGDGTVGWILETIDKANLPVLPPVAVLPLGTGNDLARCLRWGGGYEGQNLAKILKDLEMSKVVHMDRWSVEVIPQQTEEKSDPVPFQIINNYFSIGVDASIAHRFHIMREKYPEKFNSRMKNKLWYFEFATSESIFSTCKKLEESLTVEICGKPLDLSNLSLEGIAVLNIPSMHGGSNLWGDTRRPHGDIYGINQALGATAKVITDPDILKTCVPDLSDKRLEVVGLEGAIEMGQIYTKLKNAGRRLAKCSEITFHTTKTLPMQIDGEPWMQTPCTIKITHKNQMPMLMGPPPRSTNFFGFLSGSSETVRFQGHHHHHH

The target of assay [5] is T2, human DGKα. In words: biochemical. The following applies: detergent/lipid micelle substrate; read-out: DGKα IC50. A digest of the protocol: as §1
The mark [6] stands for this setting: extruded liposome substrate, read-out: DGKζ LIPGLO IC50.
Where [7] appears, read: detergent/lipid micelle substrate, read-out: DGKζ IC50.
Where [8] appears, read: DGKζ LIPGLO IC50, extruded liposome substrate.

pIC50: −log10 of the molar value. Read-outs that look alike come from different tables or passages of the source.

This passage reports IC50 results from patent publication US11866430B2, “Naphthyridinone compounds useful as T cell activators” (priority 2018, dated 2024).

T1 sequence (Q13574 other isoform, or with tags, fused parts or gaps): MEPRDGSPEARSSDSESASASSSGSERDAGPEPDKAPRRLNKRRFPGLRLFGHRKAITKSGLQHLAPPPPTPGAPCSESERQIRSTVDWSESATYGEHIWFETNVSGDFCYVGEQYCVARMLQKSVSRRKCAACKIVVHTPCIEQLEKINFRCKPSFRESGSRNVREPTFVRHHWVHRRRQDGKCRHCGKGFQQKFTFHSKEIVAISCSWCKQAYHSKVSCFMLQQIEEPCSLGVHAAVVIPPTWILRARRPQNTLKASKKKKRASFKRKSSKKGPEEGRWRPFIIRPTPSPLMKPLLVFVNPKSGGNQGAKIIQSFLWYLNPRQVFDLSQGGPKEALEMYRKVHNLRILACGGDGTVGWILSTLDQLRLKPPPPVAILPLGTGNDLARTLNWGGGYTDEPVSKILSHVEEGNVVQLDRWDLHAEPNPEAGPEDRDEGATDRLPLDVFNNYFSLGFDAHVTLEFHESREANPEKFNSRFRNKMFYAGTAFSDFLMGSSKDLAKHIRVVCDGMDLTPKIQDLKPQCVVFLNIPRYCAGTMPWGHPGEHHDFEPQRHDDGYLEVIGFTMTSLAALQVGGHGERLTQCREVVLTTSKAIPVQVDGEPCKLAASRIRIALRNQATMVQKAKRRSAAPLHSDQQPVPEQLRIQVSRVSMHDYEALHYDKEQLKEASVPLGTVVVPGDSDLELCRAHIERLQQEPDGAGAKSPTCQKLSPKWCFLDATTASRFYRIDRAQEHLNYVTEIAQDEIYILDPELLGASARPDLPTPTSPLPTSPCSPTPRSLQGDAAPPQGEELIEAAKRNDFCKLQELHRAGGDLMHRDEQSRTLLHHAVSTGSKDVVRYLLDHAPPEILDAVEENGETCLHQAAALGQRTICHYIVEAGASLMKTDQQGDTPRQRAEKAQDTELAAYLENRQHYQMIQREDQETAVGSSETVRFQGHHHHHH

In general, pIC50 refers to −log10 of the IC50, conventionally taken in molar units. Regarding `Cc1cccc(OCc2cncc(C#N)c2)c1C(c1ccc(F)cc1)N1CCN(c2c([N+](=O)[O-])c(=O)n(C)c3ccc(Br)nc23)CC1` (single isomer, unassigned) [Example 90, 5-((2-((4-(6-bromo-1-methyl-3-nitro-2-oxo-1,2-dihydro-1,5-naphthyridin-4-yl)piperazin-1-yl)(4-fluorophenyl)methyl)-3-methylphenoxy)methyl)nicotinonitrile], the pIC50 on human DGKζ [1] (setting [6]) is 4.82; in assay [2], 6.20; on human DGKζ [3] (setting [7]), 3.72; against human DGKα [4] it was < 3.62; at human DGKα [5] it was 4.09.

For the compound `Cc1ccc2c(n1)c(N1CCN(Cc3ccc(F)cc3O)CC1)c(C#N)c(=O)n2C` [Example 194, 4-(4-(4-fluoro-2-hydroxybenzyl)piperazin-1-yl)-1,6-dimethyl-2-oxo-1,2-dihydro-1,5-naphthyridine-3-carbonitrile], the pIC50 on human DGKζ [1] (setting [6]) was 5.08; in assay [2] (Homo sapiens, Raji), 6.36; on human DGKζ [3] (setting [7]), 4.21; at human DGKα [4], 6.74; on human DGKα [5], 7.12.

As to `Cn1c(=O)c(C#N)c(N2CCN(Cc3cccc4c3NCC4)CC2)c2nc(Cl)ccc21` [Example 216, 6-chloro-4-(4-(indolin-7-ylmethyl)piperazin-1-yl)-1-methyl-2-oxo-1,2-dihydro-1,5-naphthyridine-3-carbonitrile], the pIC50 at human DGKζ [1] (setting [6]) was 5.32; in assay [2] (Homo sapiens, Raji), 7.19; on human DGKζ [3] (setting [7]) it was 4.27; on human DGKα [4] it was 5.92; on human DGKα [5] it was 5.85.

`Cn1c(=O)c(C#N)c(N2CCN(Cc3ccccc3Cl)CC2)c2nc(Cl)ccc21` [Example 272, 6-chloro-4-{4-[(2-chlorophenyl)methyl]piperazin-1-yl}-1-methyl-2-oxo-1,2-dihydro-1,5-naphthyridine-3-carbonitrile]: the pIC50 on human DGKζ [1] (setting [6]) was 5.00; in assay [2] (Homo sapiens, Raji), 7.19; at human DGKζ [3] (setting [7]), < 3.62; against human DGKα [4] it was 5.64; at human DGKα [5] it was 5.82.

`Cc1ccc(CN2CCN(c3c(C#N)c(=O)n(C)c4ccc(Cl)nc34)CC2)c(O)c1` [Example 273, 6-chloro-4-{4-[(2-hydroxy-4-methylphenyl)methyl]piperazin-1-yl}-1-methyl-2-oxo-1,2-dihydro-1,5-naphthyridine-3-carbonitrile]: the pIC50 was 5.11 at human DGKζ [1] (setting [6]); 7.19 in assay [2] (Homo sapiens, Raji); 4.16 on human DGKζ [3] (setting [7]); 7.09 against human DGKα [4]; 7.74 on human DGKα [5].

`CC(c1ccc(F)cc1)N1CCN(c2c(C#N)c(=O)n(CC3CC3)c3ccc(Br)nc23)CC1` (single isomer, unassigned) [Example 164, 6-bromo-1-(cyclopropylmethyl)-4-(4-(1-(4-fluorophenyl)ethyl)piperazin-1-yl)-2-oxo-1,2-dihydro-1,5-naphthyridine-3-carbonitrile]: the pIC50 against human DGKζ [1] (setting [8]) was 4.23; in assay [2], 5.59; on human DGKζ [3] (read-out: DGKζ IC50, detergent/lipid micelle substrate), < 3.62; against human DGKα [4], 4.09; at human DGKα [5] it was < 3.62.

With `Cn1c(=O)c([N+](=O)[O-])c(N2CCN(C(c3ccccc3)c3ccccc3)CC2)c2nc(C#N)ccc21` [Example 223, 8-(4-benzhydrylpiperazin-1-yl)-5-methyl-7-nitro-6-oxo-5,6-dihydro-1,5-naphthyridine-2-carbonitrile], the pIC50 at human DGKζ [1] (setting [6]) is 6.21; in assay [2] (Homo sapiens, Raji), 7.38; at human DGKζ [3] (setting [7]), 5.49; on human DGKα [4] it was 5.00; at human DGKα [5] it was 5.72.

Take `Cn1c(=O)c(C#N)c(N2CCN(Cc3cc(C#N)ccc3F)CC2)c2nc(Cl)ccc21` [Example 340, 6-chloro-4-{4-[(5-cyano-2-fluoro-phenyl)methyl]piperazin-1-yl}-1-methyl-2-oxo-1,2-dihydro-1,5-naphthyridine-3-carbonitrile]: the pIC50 is 4.77 at human DGKζ [1] (setting [6]); 6.16 in assay [2] (Homo sapiens, Raji); < 3.62 at human DGKζ [3] (setting [7]); 5.47 against human DGKα [4]; 5.38 on human DGKα [5].

As for `Cn1c(=O)c(C#N)c(N2CCN(Cc3cc(Br)ccc3O)CC2)c2nc(Cl)ccc21` [Example 275, 4-{4-[(5-bromo-2-hydroxyphenyl)methyl]piperazin-1-yl}-6-chloro-1-methyl-2-oxo-1,2-dihydro-1,5-naphthyridine-3-carbonitrile], the pIC50 at human DGKζ [1] (setting [6]) was 5.00; in assay [2] (Homo sapiens, Raji), 7.14; at human DGKζ [3] (setting [7]), 4.24; against human DGKα [4], 6.11; on human DGKα [5] it was 6.52.

Regarding `C#CCn1c(=O)c(C#N)c(N2CCN(C(c3ccc(F)cc3)c3ccc(F)cc3)CC2)c2nc(Br)ccc21` [Example 229, 4-(4-(bis(4-fluorophenyl)methyl)piperazin-1-yl)-6-bromo-2-oxo-1-(prop-2-yn-1-yl)-1,2-dihydro-1,5-naphthyridine-3-carbonitrile], the pIC50 at human DGKζ [1] (setting [6]) was 4.96; in assay [2] (Homo sapiens, Raji), 6.92; at human DGKζ [3] (setting [7]), 4.85; against human DGKα [4], < 3.62; on human DGKα [5], 4.85.

Turning to `COc1cccc(F)c1CN1CCN(c2c(C#N)c(=O)n(C)c3ccc(Cl)nc23)CC1` [Example 335, 6-chloro-4-{4-[(2-fluor-6-methoxyphenyl)methyl]piperazin-1-yl}-1-methyl-2-oxo-1,2-dihydro-1,5-naphthyridine-3-carbonitrile], the pIC50 on human DGKζ [1] (setting [6]) is 4.74; in assay [2] (Homo sapiens, Raji) it was 6.27; on human DGKζ [3] (setting [7]) it was < 3.62; on human DGKα [4] it was 5.72; at human DGKα [5] it was 5.57.

For `C#CCn1c(=O)c([N+](=O)[O-])c(N2CCN(C(c3ccc(F)cc3)c3ccc(F)cc3)CC2)c2nc(C#N)ccc21` [Example 118, 8-(4-(bis(4-fluorophenyl)methyl)piperazin-1-yl)-7-nitro-6-oxo-5-(prop-2-yn-1-yl)-5,6-dihydro-1,5-naphthyridine-2-carbonitrile], the pIC50 was 7.21 on human DGKζ [1] (setting [6]); 7.74 in assay [2] (Homo sapiens, Raji); 6.64 at human DGKζ [3] (setting [7]); 5.89 at human DGKα [4]; 5.38 at human DGKα [5].

For the compound `Cn1c(=O)c(C#N)c(N2CCN(Cc3ccc(Cl)cc3O)CC2)c2nc(C#N)ccc21` [Example 269, 8-{4-[(4-chloro-2-hydroxyphenyl)methyl]piperazin-1-yl}-5-methyl-6-oxo-5,6-dihydro-1,5-naphthyridine-2,7-dicarbonitrile], the pIC50 is 5.55 on human DGKζ [1] (setting [6]); 7.24 in assay [2] (Homo sapiens, Raji); 4.59 at human DGKζ [3] (setting [7]); 6.68 against human DGKα [4]; 7.28 on human DGKα [5].

For the compound `COc1cc(F)ccc1C(c1ccc(F)cc1)N1CCN(c2c([N+](=O)[O-])c(=O)n(C)c3ccc(C#N)nc23)CC1` (single isomer, unassigned) [Example 125, 8-(4-((4-fluoro-2-methoxyphenyl)(4-fluorophenyl)methyl)piperazin-1-yl)-5-methyl-7-nitro-6-oxo-5,6-dihydro-1,5-naphthyridine-2-carbonitrile], the negative logarithm of the IC50 (pIC50) is 5.64 at human DGKζ [1] (setting [8]); 7.64 in assay [2] (Homo sapiens, Raji); 5.10 on human DGKζ [3] (DGKζ IC50, detergent/lipid micelle substrate); 4.96 against human DGKα [4]; 5.37 at human DGKα [5].

For `Cn1c(=O)c(C#N)c(N2CCN(Cc3cccc(F)c3)CC2)c2nc(Cl)ccc21` [Example 321, 6-chloro-4-{4-[(3-fluorophenyl)methyl]piperazin-1-yl}-1-methyl-2-oxo-1,2-dihydro-1,5-naphthyridine-3-carbonitrile], the pIC50 at human DGKζ [1] (setting [6]) was 4.92; in assay [2] (Homo sapiens, Raji), 6.51; at human DGKζ [3] (setting [7]), < 3.62; on human DGKα [4] it was 6.47; on human DGKα [5], 6.80.

On to `Cn1c(=O)c(C#N)c(N2CCN(C(c3ccc(F)cc3)c3ccc(F)cc3)CC2)c2nc(C#N)ccc21` [Example 217, 8-(4-(bis(4-fluorophenyl)methyl)piperazin-1-yl)-5-methy-6-oxo-5,6-dihydro-1,5-naphthyridine-2,7-dicarbonitrile], for which the pIC50 on human DGKζ [1] (setting [6]) was 5.85; in assay [2] (Homo sapiens, Raji), 7.17; at human DGKζ [3] (setting [7]), 5.35; on human DGKα [4], 5.89; at human DGKα [5] it was 5.64.

With `C#CCn1c(=O)c([N+](=O)[O-])c(N2CCN(C(CC)c3ccc(F)cc3)CC2)c2nc(C#N)ccc21` (single isomer, unassigned) [Example 140, 8-{4-[1-(4-fluorophenyl)propyl]piperazin-1-yl}-7-nitro-6-oxo-5-(prop-2-yn-1-yl)-5,6-dihydro-1,5-naphthyridine-2-carbonitrile], the pIC50 on human DGKζ [1] (setting [6]) was 6.89; in assay [2] (Homo sapiens, Raji) it was 8.22; at human DGKζ [3] (setting [7]) it was 6.22; at human DGKα [4], 5.57; on human DGKα [5], 6.19.

On to `Cn1c(=O)c(C#N)c(N2CCN(C(c3ccc(F)cc3)c3ccc(F)cc3)CC2)c2nc(Cl)ccc21` [Example 218, 4-(4-(bis(4-fluorophenyl)methyl)piperazin-1-yl)-6-chloro-1-methyl-2-oxo-1,2-dihydro-1,5-naphthyridine-3-carbonitrile], for which the pIC50 on human DGKζ [1] (setting [6]) was 5.29; in assay [2] (Homo sapiens, Raji), 7.03; on human DGKζ [3] (setting [7]) it was < 4.09; against human DGKα [4], 5.82; on human DGKα [5] it was 6.16.
